The structures appear in SMILES notation. Where two headings read alike, the source gives them in different places.

These results are taken from patent US20260028354A1, “TETRAHYDRONAPHTHALENE DERIVATIVES AS ESTROGEN RECEPTOR DEGRADERS” (REGENT OF THE UNIVERSITY OF MICHIGAN, priority 2022, published 2026).

One assay has as its target ER (Homo sapiens (Human), UniProt P03372). In words: In-cell western blot analysis of ER for "B" compounds. It is filed as cell-based. The conditions noted are these: 16 hours, read-out: ICW DC50. In short, it runs like this:
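ER levels given as a percentage of untreated/DMSO-treated wells (100%). Detection used primary antibodies for 2 h at room temperature followed by 680 and 800 nm fluorescent secondaries at 1:1000 for 1 h, read by LI-COR imaging.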

Assay [1] in a line: Cell growth assay (WST-8) for "B" compounds. The assay is classed as cell-based. The conditions noted are these: T47D, read-out: Cell growth Inhibition in T47D cell line IC50. In short, it runs like this: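 Four-day compound exposure of cells plated at 1500/well the day before. Read-out is WST-8 (10%, 2.5 h, 37 °C) absorbance at 450 nm, normalized to vehicle control over three independent repeats.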

Chain of ER (P03372 whole entry): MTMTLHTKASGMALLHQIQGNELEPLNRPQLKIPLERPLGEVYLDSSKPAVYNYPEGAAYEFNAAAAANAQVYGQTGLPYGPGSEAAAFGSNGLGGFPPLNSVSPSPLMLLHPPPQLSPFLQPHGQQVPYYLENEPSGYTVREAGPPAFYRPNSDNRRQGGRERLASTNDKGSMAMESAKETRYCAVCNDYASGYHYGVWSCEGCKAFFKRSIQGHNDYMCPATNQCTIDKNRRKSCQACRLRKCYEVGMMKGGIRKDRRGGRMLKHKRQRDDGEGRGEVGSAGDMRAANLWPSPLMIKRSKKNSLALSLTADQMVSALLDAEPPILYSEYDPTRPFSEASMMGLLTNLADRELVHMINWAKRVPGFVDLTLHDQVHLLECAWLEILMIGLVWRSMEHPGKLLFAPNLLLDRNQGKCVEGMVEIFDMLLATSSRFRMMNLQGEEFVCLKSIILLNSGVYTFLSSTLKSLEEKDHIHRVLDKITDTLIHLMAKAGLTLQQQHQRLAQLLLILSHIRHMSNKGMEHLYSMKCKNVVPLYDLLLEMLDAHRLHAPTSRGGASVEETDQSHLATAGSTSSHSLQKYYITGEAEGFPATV

As to `O=C1CCC(N2Cc3c(ccc4c3OC[C@@H]3CN(CC5CCN(c6ccc([C@@H]7c8ccc(O)cc8CC[C@@H]7c7ccccc7)cc6)CC5)CCN43)C2=O)C(=O)N1` (stereo partly drawn) [Compound B306, 3-((S)-7-((1-(4-((1R,2S)-6-hydroxy-2-phenyl-1,2,3,4-tetrahydronaphthalen-1-yl)phenyl)piperidin-4-yl)methyl)-1-oxo-1,3,5,5a,6,7,8,9-octahydro-2H-pyrazino[1′,2′:4,5][1,4]oxazino[2,3-e]isoindol-2-yl)piperidine-2,6-dione], the DC50 on ER is greater than 100 nM. The half-inhibitory concentration (IC50) in assay [1] (T47D cell line) is less than 1 nM.

Turning to `O=C1CCC(N2Cc3cc4c(cc3C2=O)OC[C@@H]2C[C@H](NCC3CCN(c5ccc([C@@H]6c7ccc(O)cc7CC[C@@H]6c6ccccc6)cc5)CC3)CN42)C(=O)N1` (stereo partly drawn) [Compound B307, 3-((2S,3aS)-2-(((1-(4-((1R,2S)-6-hydroxy-2-phenyl-1,2,3,4-tetrahydronaphthalen-1-yl)phenyl)piperidin-4-yl)methyl)amino)-7-oxo-2,3,3a,4,7,9-hexahydro-1H,8H-pyrrolo[1′,2′:4,5][1,4]oxazino[2,3-f]isoindol-8-yl)piperidine-2,6-dione], the DC50 at ER was greater than 100 nM. Also, in assay [1] (T47D cell line), the IC50 was 1 to 10 nM.

For `CN(CC1CCN(c2ccc([C@@H]3c4ccc(O)cc4CC[C@@H]3c3ccccc3)cc2)CC1)[C@H]1C[C@H]2COc3cc4c(cc3N2C1)CN(C1CCC(=O)NC1=O)C4=O` (stereo partly drawn) [Compound B310, 3-((2S,3aS)-2-(((1-(4-((1R,2S)-6-hydroxy-2-phenyl-1,2,3,4-tetrahydronaphthalen-1-yl)phenyl)piperidin-4-yl)methyl)(methyl)amino)-7-oxo-2,3,3a,4,7,9-hexahydro-1H,8H-pyrrolo[1′,2′:4,5][1,4]oxazino[2,3-f]isoindol-8-yl)piperidine-2,6-dione], the DC50 on ER was greater than 100 nM. In addition, the concentration for half-maximal inhibition (IC50) in assay [1] (T47D cell line) is less than 1 nM.

`CCN(CC1CCN(c2ccc([C@@H]3c4ccc(O)cc4CC[C@@H]3c3ccccc3)cc2)CC1)[C@H]1C[C@H]2COc3cc4c(cc3N2C1)CN(C1CCC(=O)NC1=O)C4=O` (stereo partly drawn) [Compound B311, 3-((2S,3aS)-2-(ethyl((1-(4-((1R,2S)-6-hydroxy-2-phenyl-1,2,3,4-tetrahydronaphthalen-1-yl)phenyl)piperidin-4-yl)methyl)amino)-7-oxo-2,3,3a,4,7,9-hexahydro-1H,8H-pyrrolo[1′,2′:4,5][1,4]oxazino[2,3-f]isoindol-8-yl)piperidine-2,6-dione]: at ER, the DC50 was greater than 100 nM. Moreover, the IC50 in assay [1] (T47D cell line) is less than 1 nM.

In the case of `CN(C(=O)c1ccc2c(c1)OC[C@@H]1CN(CC3CC4(CCN(c5ccc([C@@H]6c7ccc(O)cc7CC[C@@H]6c6ccccc6)cc5)CC4)C3)CCN21)C1CCC(=O)NC1=O` (stereo partly drawn) [Compound B312, (4aS)-N-(2,6-dioxopiperidin-3-yl)-3-((7-(4-((1R,2S)-6-hydroxy-2-phenyl-1,2,3,4-tetrahydronaphthalen-1-yl)phenyl)-7-azaspiro[3.5]nonan-2-yl)methyl)-N-methyl-1,2,3,4,4a,5-hexahydrobenzo[b]pyrazino[1,2-d][1,4]oxazine-8-carboxamide], at ER, the DC50 is greater than 100 nM. Moreover, the IC50 in assay [1] (T47D cell line) was less than 1 nM.

With `O=C1CCC(N2Cc3c(ccc4c3OCC43CCN(CC4CC5(CCN(c6ccc([C@@H]7c8ccc(O)cc8CC[C@@H]7c7ccccc7)cc6)CC5)C4)CC3)C2=O)C(=O)N1` (stereo partly drawn) [Compound B313, 3-(1′-((7-(4-((1R,2S)-6-hydroxy-2-phenyl-1,2,3,4-tetrahydronaphthalen-1-yl)phenyl)-7-azaspiro[3.5]nonan-2-yl)methyl)-6-oxo-6,8-dihydro-2H,7H-spiro[furo[2,3-e]isoindole-3,4′-piperidin]-7-yl)piperidine-2,6-dione], the DC50 at ER was in the range of 10 to 100 nM. In assay [1], the concentration for half-maximal inhibition (IC50) is less than 1 nM.

As to `O=C1CC[C@H](NC(=O)c2ccc(N3CCN(CC4CCN(c5ccc([C@@H]6c7ccc(O)cc7CC[C@@H]6c6ccccc6)cc5)CC4)CC3)cc2)C(=O)N1` [Compound B315, N-((S)-2,6-dioxopiperidin-3-yl)-4-(4-((1-(4-((1R,2S)-6-hydroxy-2-phenyl-1,2,3,4-tetrahydronaphthalen-1-yl)phenyl)piperidin-4-yl)methyl)piperazin-1-yl)benzamide], the DC50 on ER was greater than 100 nM. The 50% inhibitory concentration (IC50) in assay [1] (T47D cell line) lay in the range of 1 to 10 nM.

Turning to `O=C1CC[C@H](NC(=O)c2ccc(N3CCN(CC4CCN(c5ccc([C@@H]6c7ccc(O)cc7CC[C@@H]6c6ccccc6)cc5)CC4)CC3)cn2)C(=O)N1` [Compound B316, N-((S)-2,6-dioxopiperidin-3-yl)-5-(4-((1-(4-((1R,2S)-6-hydroxy-2-phenyl-1,2,3,4-tetrahydronaphthalen-1-yl)phenyl)piperidin-4-yl)methyl)piperazin-1-yl)picolinamide], the DC50 at ER was 10 to 100 nM. Further, the half-maximal inhibitory concentration (IC50) in assay [1] (T47D cell line) lay within 1 to 10 nM.

`O=C1CC[C@H](NC(=O)c2ccc(N3CCN(CC4CCN(c5ccc([C@@H]6c7ccc(O)cc7CC[C@@H]6c6ccccc6)cc5)CC4)CC3)cc2F)C(=O)N1` [Compound B317, N-((S)-2,6-dioxopiperidin-3-yl)-2-fluoro-4-(4-((1-(4-((1R,2S)-6-hydroxy-2-phenyl-1,2,3,4-tetrahydronaphthalen-1-yl)phenyl)piperidin-4-yl)methyl)piperazin-1-yl)benzamide]: on ER, the DC50 is greater than 100 nM. For the same compound, in assay [1] (T47D cell line), the 50% inhibitory concentration (IC50) lay within 1 to 10 nM.

As to `O=C1CCC(N2C(=O)c3cc4c(cc3C2=O)CN(CC(=O)N2CCOC3(CCN(c5ccc([C@@H]6c7ccc(O)cc7CC[C@@H]6c6ccccc6)cc5)CC3)C2)C4)C(=O)N1` (stereo partly drawn) [Compound B325, 2-(2,6-dioxopiperidin-3-yl)-6-(2-(9-(4-((1R,2S)-6-hydroxy-2-phenyl-1,2,3,4-tetrahydronaphthalen-1-yl)phenyl)-1-oxa-4,9-diazaspiro[5.5]undecan-4-yl)-2-oxoethyl)-6,7-dihydropyrrolo[3,4-f]isoindole-1,3(2H,5H)-dione], the DC50 on ER was 10 to 100 nM. The IC50 in assay [1] (T47D cell line) is 1 to 10 nM.

`CN(C(=O)c1ccc2c(c1)OC[C@H]1CN(CC3CC4(CCN(c5ccc([C@@H]6c7ccc(O)cc7CC[C@@H]6c6ccccc6)cc5)CC4)C3)CCN21)C1CCC(=O)NC1=O` (stereo partly drawn) [Compound B326, (4aR)-N-(2,6-dioxopiperidin-3-yl)-3-((7-(4-((1R,2S)-6-hydroxy-2-phenyl-1,2,3,4-tetrahydronaphthalen-1-yl)phenyl)-7-azaspiro[3.5]nonan-2-yl)methyl)-N-methyl-1,2,3,4,4a,5-hexahydrobenzo[b]pyrazino[1,2-d][1,4]oxazine-8-carboxamide]: the DC50 on ER is greater than 100 nM. The IC50 in assay [1] (T47D cell line) is 1 to 10 nM.

Consider `O=C1CCC(N2Cc3c(ccc4c3OC[C@H]3CN(CC5COC6(CN(c7ccc([C@@H]8c9ccc(O)cc9CC[C@@H]8c8ccccc8)cc7)C6)OC5)CCN43)C2=O)C(=O)N1` (stereo partly drawn) [Compound B327, 3-((R)-7-((2-(4-((1R,2S)-6-hydroxy-2-phenyl-1,2,3,4-tetrahydronaphthalen-1-yl)phenyl)-5,9-dioxa-2-azaspiro[3.5]nonan-7-yl)methyl)-1-oxo-1,3,5,5a,6,7,8,9-octahydro-2H-pyrazino[1′,2′:4,5][1,4]oxazino[2,3-e]isoindol-2-yl)piperidine-2,6-dione], for which, at ER, the DC50 is 10 to 100 nM. Moreover, in assay [1] (T47D cell line), the half-maximal inhibitory concentration (IC50) was less than 1 nM.

For the compound `O=C1CCC(N2Cc3cc4c(cc3C2=O)OC[C@@H]2CN(CC3COC5(CN(c6ccc([C@@H]7c8ccc(O)cc8CC[C@@H]7c7ccccc7)cc6)C5)OC3)CCN42)C(=O)N1` (stereo partly drawn) [Compound B328, 3-((S)-3-((2-(4-((1R,2S)-6-hydroxy-2-phenyl-1,2,3,4-tetrahydronaphthalen-1-yl)phenyl)-5,9-dioxa-2-azaspiro[3.5]nonan-7-yl)methyl)-8-oxo-1,2,3,4,4a,5,8,10-octahydro-9H-pyrazino[1′,2′:4,5][1,4]oxazino[2,3-f]isoindol-9-yl)piperidine-2,6-dione], the DC50 on ER is 10 to 100 nM. For the same compound, the IC50 in assay [1] (T47D cell line) lay within 1 to 10 nM.

Turning to `O=C1CCC(N2C(=O)c3cc4c(cc3C2=O)N2C[C@@H](NCC3CC5(CCN(c6ccc([C@@H]7c8ccc(O)cc8CC[C@@H]7c7ccccc7)cc6)CC5)C3)C[C@H]2CO4)C(=O)N1` (stereo partly drawn) [Compound B329, (2S,3aS)-8-(2,6-dioxopiperidin-3-yl)-2-(((7-(4-((1R,2S)-6-hydroxy-2-phenyl-1,2,3,4-tetrahydronaphthalen-1-yl)phenyl)-7-azaspiro[3.5]nonan-2-yl)methyl)amino)-2,3,3a,4-tetrahydro-1H,7H-pyrrolo[1′,2′:4,5][1,4]oxazino[2,3-f]isoindole-7,9(8H)-dione], the DC50 on ER is greater than 100 nM. The concentration for half-maximal inhibition (IC50) in assay [1] (T47D cell line) is greater than 10 nM.

Turning to `O=C1CCC(N2Cc3cc4c(cc3C2=O)OC[C@@H]2CN(CC3CCC5(CCN(c6ccc([C@@H]7c8ccc(O)cc8CC[C@@H]7c7ccccc7)cc6)CC5)OC3)CCN42)C(=O)N1` (stereo partly drawn) [Compound B332, 3-((4aS)-3-((9-(4-((1R,2S)-6-hydroxy-2-phenyl-1,2,3,4-tetrahydronaphthalen-1-yl)phenyl)-1-oxa-9-azaspiro[5.5]undecan-3-yl)methyl)-8-oxo-1,2,3,4,4a,5,8,10-octahydro-9H-pyrazino[1′,2′:4,5][1,4]oxazino[2,3-f]isoindol-9-yl)piperidine-2,6-dione], at ER, the DC50 is less than 10 nM. Further, the half-maximal inhibitory concentration (IC50) in assay [1] (T47D cell line) is 1 to 10 nM.

For the compound `O=C1CC[C@H](N2Cc3c(ccc4c3OC[C@H]3CN(CC5CCC6(CN(c7ccc([C@@H]8c9ccc(O)cc9CC[C@@H]8c8ccccc8)cc7)C6)OC5)CCN43)C2=O)C(=O)N1` (stereo partly drawn) [Compound B333, (3S)-3-((5aR)-7-((2-(4-((1R,2S)-6-hydroxy-2-phenyl-1,2,3,4-tetrahydronaphthalen-1-yl)phenyl)-5-oxa-2-azaspiro[3.5]nonan-7-yl)methyl)-1-oxo-1,3,5,5a,6,7,8,9-octahydro-2H-pyrazino[1′,2′:4,5][1,4]oxazino[2,3-e]isoindol-2-yl)piperidine-2,6-dione], the DC50 on ER is less than 10 nM. Also, the concentration for half-maximal inhibition (IC50) in assay [1] (T47D cell line) was less than 1 nM.
